This is an account of results in US4775674A, “Imidazoquinolinylether derivatives useful as phosphodiesterase and blood aggregation inhibitors” (Bristol-Myers Company, priority 1986, dated 1988).

≈ marks a conversion by molar mass, not a printed value. Like-named read-outs stand apart in the source and are kept apart here.

The subject of assay [1] is ferrets (right ventricular contractile force, blood pressure). The assay can be described thus: In vivo inotropic activity in ferrets. The arrangement: species or system ferret. Conditions: Mustela putorius, 1 h, intraduodenal. The procedure: This test is carried out in ferrets as follows. Fasted anesthetized ferrets are instrumented to study hemodynamic parameters as well as right ventricular contractile force (RVCF) using a Walton-Brodie open strain guage arch. Drugs are administered intraduodenally as solutions in DMSO (1 mL or less) and effects on myocardial contractile force and other parameters are monitored for 60 minutes after dosing. Changes in contractile force in response to drug treatment are expressed in terms of percent change from predose control.

In assay [2] the test system is platelet aggregation (Ex Vivo vs. ADP). As to the kind of experiment: Inhibition of platelet aggregation following oral administration (Ex vivo). The class given is in vivo. Conditions: Rattus norvegicus, rats, oral by gavage, 2 hours after dosing. Here is the method:
This test is sometimes referred to in the art as an Ex vivo method and was initially described by Fleming, et al., Arch. Int. Pharmacodyn. Ther., 199, 164 (1972). Briefly, the assay is essentially carried out as follows.
Aggregometry is performed in vitro as previously described on platelet rich plasma samples obtained from rats dosed with either test compounds or the vehicle. In all cases, activity is determined 2 hours after the drug is administered orally at various doses by gavage as a suspension in […] plus a few drops of Tween 20.

The subject of assay [3] is collagen-induced platelet aggregation. As to the kind of experiment: In vitro inhibition of platelet aggregation, collagen-induced (rabbit platelet rich plasma). Conditions: Oryctolagus cuniculus, collagen suspension 0.05 ml, read-out: Platelet Inhibition In Vitro - Rabbit PRP EC50 vs. collagen. The class given is cell-based. The procedure: (§1) The aggregometer method of Born (1), as modified by Mustard, et al. (2) was used to assess the in vitro activity of the various compounds as to inhibition of adenosine diphosphate (ADP) and collagen-induced platelet aggregation. Platelet rich plasma (PRP) was separated by centrifugation from citrated (3.8 percent) rabbit blood. […] The various compounds tested were dissolved in dimethylsulfoxide (DMSO) so that 5 mcl added to the platelet rich plasma would yield the desired test concentration. Vehicle control trials were done and compared with aggregation induced in platelet rich plasma containing various concentrations of the test compounds. Dose response curves were obtained and Effective Concentration (EC50) values calculated.

For assay [4], the target named is T1, cAMP phosphodiesterase (human platelets) (Homo sapiens, UniProt Q14432).
T1 construct: enzynme obtained from human platelets; from tissue; host or cells: human platelets
T1 sequence (Q14432 whole entry): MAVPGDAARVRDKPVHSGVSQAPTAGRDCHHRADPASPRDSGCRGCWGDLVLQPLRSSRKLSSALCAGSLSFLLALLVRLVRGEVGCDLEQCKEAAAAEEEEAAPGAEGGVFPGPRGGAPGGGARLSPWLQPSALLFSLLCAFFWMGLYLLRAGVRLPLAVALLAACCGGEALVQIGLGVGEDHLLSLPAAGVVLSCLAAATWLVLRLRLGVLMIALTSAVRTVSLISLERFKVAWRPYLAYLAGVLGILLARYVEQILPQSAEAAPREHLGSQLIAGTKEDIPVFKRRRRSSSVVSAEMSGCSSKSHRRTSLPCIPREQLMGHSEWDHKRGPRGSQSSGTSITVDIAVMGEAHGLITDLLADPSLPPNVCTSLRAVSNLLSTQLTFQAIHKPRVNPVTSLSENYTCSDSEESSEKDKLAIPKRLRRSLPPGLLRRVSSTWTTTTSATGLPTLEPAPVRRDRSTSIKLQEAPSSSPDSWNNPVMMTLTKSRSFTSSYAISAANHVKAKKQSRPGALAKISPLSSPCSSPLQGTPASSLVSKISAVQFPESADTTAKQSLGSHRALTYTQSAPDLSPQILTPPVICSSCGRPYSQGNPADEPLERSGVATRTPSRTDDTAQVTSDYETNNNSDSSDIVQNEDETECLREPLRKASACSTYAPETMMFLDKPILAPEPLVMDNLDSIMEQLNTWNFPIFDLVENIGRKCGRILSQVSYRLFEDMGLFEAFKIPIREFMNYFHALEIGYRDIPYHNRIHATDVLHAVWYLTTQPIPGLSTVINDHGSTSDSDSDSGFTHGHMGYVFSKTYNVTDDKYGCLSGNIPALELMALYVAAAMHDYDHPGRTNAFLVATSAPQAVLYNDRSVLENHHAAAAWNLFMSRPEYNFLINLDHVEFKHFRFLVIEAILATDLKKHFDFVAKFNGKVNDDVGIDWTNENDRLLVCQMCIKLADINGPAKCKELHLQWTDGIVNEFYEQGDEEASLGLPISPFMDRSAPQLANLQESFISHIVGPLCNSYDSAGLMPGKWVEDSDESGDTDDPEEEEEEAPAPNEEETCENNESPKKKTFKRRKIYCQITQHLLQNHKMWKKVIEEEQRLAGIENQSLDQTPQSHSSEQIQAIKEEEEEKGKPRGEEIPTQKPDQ
As to the kind of experiment: Inhibition of cyclic AMP phosphodiesterase. Conditions: PDE from human platelets. The class given is biochemical. Here is the method: This assay is carried out essentially as described by Thompson, et al., Methods in Enzymology, 38, 205-212 (1974). Briefly, tritium labeled cyclic adenosine monophosphate (cAMP) is incubated with a phosphodiesterase (PDE) enzynme obtained from human platelets which converts a portion of the cAMP to 5'AMP in culture tubes. This reaction is terminated by submerging the tubes in a boiling water bath after which they are placed on ice and an aliquot of snake venom is added to each tube. This, during a second incubation, converts the 5'AMP to adenosine. Ion exchange resin is added to bind the remaining cyclic AMP. The tubes are centrifuged to sediment the resin and a portion of the clear supernatent (which contains radioactive adenosine) is counted in a liquid scintillation counter. The cAMP phosphodiesterase inhibition activity of a test agent is determined by pre-incubating the PDE enzyme preparation with the test agent.

Assay [5] relates to adenosine diphosphate (ADP)-induced platelet aggregation. The assay can be described thus: In vitro inhibition of platelet aggregation, ADP-induced (rabbit platelet rich plasma). Conditions: Oryctolagus cuniculus, ADP 0.5 mcg/ml, read-out: Platelet Inhibition In Vitro - Rabbit PRP EC50 vs. ADP. The class given is cell-based. The procedure:
as §1

Setting [6] is: anesthetized ferret, 3 mg/kg, 60 minutes, vs predose control, read-out: Maximum Percentage Change Right Ventricular Contractile Force (RVCF).
Where [7] appears, read: anesthetized ferret, 3 mg/kg, 60 minutes, read-out: Maximum Percentage Change Blood Pressure.

For orientation: ED50 means the dose that gives a 50% effect, or the effect in half of the subjects. The low end stands for an effect at a small dose, the high end for a need for a large dose. With `O=C(O)CCCOc1ccc2nc3[nH]c(=O)[nH]c3cc2c1` [Example 4, 4-[(2,3-Dihydro-2-oxo-1H-imidazo[4,5-b]quinolin-7-yl)oxy]butanoic Acid], the change in vivo at 3 mg/kg is 3 ± 5% in assay [1] (setting [6]) and -3 ± 2% in assay [1] (setting [7]). Besides, the 50% effect level in assay [2] (ED50) was put at a dose of 3.4 mg/kg.
A word on the EC50: it is the concentration that produces a half-maximal response. Usually IC50 stands for the concentration at which inhibition is half-maximal. Lower therefore signals greater potency. Turning to `Cn1c(=O)[nH]c2nc3ccc(OCCCC(=O)O)cc3cc21` [Example 6, 4-[(2,3-Dihydro-1-methyl-2-oxo-1H-imidazo[4,5-b]quinolin-7-yl)oxy]butanoic Acid], the EC50 in assay [3] and in assay [5] was greater than 32 µg/mL each time. The IC50 in assay [4] was 600 nM.
Regarding `O=C(O)COc1ccc2[nH]c3nc(O)nc-3cc2c1` [Example 7, 2-[(1,3-Dihydro-2-oxo-2H-imidazo[4,5-b]quinolin-7-yl)oxy]acetic Acid], in assay [4], the IC50 is 70 nM.
In the case of `O=C(O)CCCCOc1ccc2nc3[nH]c(=O)[nH]c3cc2c1` [Example 8, 5-[(2,3-Dihydro-2-oxo-1H-imidazo[4,5-b]quinolin-7-yl)oxy]pentanoic Acid], the EC50 in assay [3] and in assay [5] was greater than 32 µg/mL in each case.
For the compound `Cn1c(O)nc2nc3ccc(OCCCCC(=O)O)cc3cc21` [Example 9, 5-[(2,3-Dihydro-1-methyl-2-oxo-1H-imidazo[4,5-b]quinolin-7-yl)oxy]pentanoicAcid], the EC50 in assay [3] and in assay [5] was greater than 32 µg/mL each time. The IC50 in assay [4] worked out at 800 nM.
Regarding `COC(=O)CCCOc1ccc2nc3[nH]c(=O)n(C)c3cc2c1` [Example 11, Methyl 4-[(2,3-Dihydro-1-methyl-2-oxo-1H-imidazo[4,5-b]quinolin-7-yl)oxy]butanoat], the change in vivo at 3 mg/kg was -10% in assay [1] (setting [6]) and -4% in assay [1] (setting [7]). Besides, in assay [2], the 50% effect level (ED50) was put at a dose of 15.7 mg/kg.
As for `CCOC(=O)COc1ccc2nc3[nH]c(=O)[nH]c3cc2c1` [Example 12, Ethyl [(2,3-Dihydro-2-oxo-1H-imidazo[4,5-b]quinolin-7-yl)oxy]acetate], the EC50 in assay [3] was 2.5 µg/mL (≈ 8.7 µM); in assay [5] it was 8 µg/mL (≈ 27.8 µM).
Consider `COC(=O)CCCCOc1ccc2nc3[nH]c(=O)[nH]c3cc2c1` [Example 13, Methyl 5-[(2,3-Dihydro-2-oxo-1H-imidazo[4,5-b]quinolin-7-yl)oxy]pentanoate], for which the EC50 in assay [5] is 0.3 µg/mL (≈ 0.951 µM).
Consider `COC(=O)CCCCOc1ccc2nc3nc(O)n(C)c3cc2c1` [Example 14, Methyl 5-[(2,3-Dihydro-1-methyl-2-oxo 1H-imidazo[4,5-b]quinolin-7-yl)oxy]pentanoate], for which the IC50 in assay [4] is 5000 nM. In assay [5], the EC50 is 3 µg/mL (≈ 9.11 µM).
`O=C(CCCOc1ccc2nc3[nH]c(=O)[nH]c3cc2c1)N1CCOCC1` [Example 15]: the change in vivo at 3 mg/kg in assay [1] (setting [6]) is 2%; in assay [1] (setting [7]), -5%. The EC50 in assay [3] was found to be 0.007 µg/mL (≈ 0.0196 µM).
Take `O=C(CCCOc1ccc2nc3[nH]c(=O)[nH]c3cc2c1)NC1CCCCC1` [Example 18, N-Cyclohexyl-4-[(2,3-dihydro-2-oxo-1H-imidazo[4,5-b]quinolin-7-yl)oxy]butanamide]: the figures for the change in vivo at 3 mg/kg in assay [1] (setting [6]) and in assay [1] (setting [7]) were 5% and -8%, respectively. Further, the EC50 in assay [3] came out at 0.0025 µg/mL (≈ 0.00679 µM); in assay [5], 0.015 µg/mL (≈ 0.0407 µM).
For the compound `CN(C(=O)CCCOc1ccc2nc3nc(O)n(C)c3cc2c1)C1CCCCCC1` [Example 23, N-Cycloheptyl-4-[(2,3-dihydro-1-methyl-2-oxo-1H-imidazo[4,5-b]quinolin-7-yl)oxy]-N-methylbutanamide], the change in vivo at 3 mg/kg in assay [1] (setting [6]) was 24%; in assay [1] (setting [7]), -16%. Besides, the figures for the EC50 in assay [3] and in assay [5] were 0.005 µg/mL (≈ 0.0122 µM) and 0.03 µg/mL (≈ 0.0731 µM), respectively. For the same compound, in assay [4], the IC50 was determined as 30000 nM.
Turning to `O=C(CCCOc1ccc2nc3[nH]c(=O)[nH]c3cc2c1)N1CCCCC1` [Example 24, 1-[4-[(2,3-Dihydro-2-oxo-1H-imidazo[4,5-b]quinolin-7-yl)oxy]-1-oxobutyl]piperidine], the change in vivo at 3 mg/kg is 32% in assay [1] (setting [6]) and -19% in assay [1] (setting [7]). Further, the IC50 in assay [4] was 20 nM. In assay [5], the half-maximal effective concentration (EC50) is 0.04 µg/mL (≈ 0.113 µM).
For the compound `Cn1c(=O)[nH]c2nc3ccc(OCCCC(=O)N4CCCCC4)cc3cc21` [Example 25, 1-[4-[(2,3-Dihydro-1-methyl-2-oxo-1H-imidazo[4,5-b]quinolin-7-yl)oxy]-1-oxobutyl]piperidine], the EC50 worked out at 0.8 µg/mL (≈ 2.17 µM) in assay [3] and 4 µg/mL (≈ 10.9 µM) in assay [5].
As to `O=C(CCCOc1ccc2nc3[nH]c(=O)[nH]c3cc2c1)N1CCN(c2ccccc2)CC1` [Example 26, 1-[4-[(2,3-Dihydro-2-oxo-1H-imidazo[4,5-b]quinolin-7-yl)oxy]-1-oxobutyl]-4-phenylpiperazine], the figures for the EC50 in assay [3] and in assay [5] were 0.009 µg/mL (≈ 0.0209 µM) and 0.125 µg/mL (≈ 0.29 µM), respectively. The IC50 in assay [4] stood at 2 nM.
As to `CN(C(=O)CCCCOc1ccc2nc3nc(O)n(C)c3cc2c1)C1CCCCC1` [Example 27, N-Cyclohexyl-5-[(2,3-dihydro-1-methyl-2-oxo-1H-imidazo[4,5-b]quinolin-7-yl)oxy]N-methylpentanamide], the values for the change in vivo at 3 mg/kg in assay [1] (setting [6]) and in assay [1] (setting [7]) were 35% and -24%, respectively. In assay [4], the IC50 was determined as 500 nM. For the same compound, in assay [5], the EC50 was 0.06 µg/mL (≈ 0.146 µM).
In the case of `CN(C(=O)CCCCOc1ccc2nc3[nH]c(=O)n(C)c3cc2c1)C1CCCCCC1` [Example 28, N-Cycloheptyl-5-[(2,3-dihydro-1-methyl-2-oxo-1H-imidazo[4,5-b]quinolin-7-yl)oxy]-N-methylpentanamide], the change in vivo at 3 mg/kg in assay [1] (setting [6]) is 27%; in assay [1] (setting [7]), -12%. For the same compound, in assay [4], half-maximal inhibition (IC50) was put at 600 nM. Also, the EC50 in assay [5] was 0.06 µg/mL (≈ 0.141 µM).
As for `CCN(CC)CCOc1ccc2nc3[nH]c(=O)[nH]c3cc2c1` [Example 34, 7-[(2-Diethylamino)ethoxy]-1,3-dihydro-2H-imidazo[4,5-b]quinolin-2-one], the EC50 came out at 0.4 µg/mL (≈ 1.33 µM) in assay [3] and 1.5 µg/mL (≈ 4.99 µM) in assay [5].
Take `Oc1nc2cc3cc(OCCCCc4nnnn4C4CCCCC4)ccc3[nH]c-2n1` [Example 36, 7-[4-(1-Cyclohexyl-1H-tetrazol-5-yl)butoxy]-1,3-dihydro-2H-imidazo[4,5-b]quinolin-2-one]: the EC50 in assay [3] turned out to be 0.02 µg/mL (≈ 0.0491 µM). For the same compound, 4 nM corresponded to half-maximal inhibition in assay [4] (IC50).
Regarding `CC(C)N1CC(COc2ccc3nc4[nH]c(=O)[nH]c4cc3c2)OC1=O` (centres unmarked) [Example 41, 1,3-Dihydro-7-[[3-(1-methylethyl)-2-oxo-5-oxazolidinyl]methoxy]-2H-imidazo[4,5-b]quinolin-2-one], the values for the EC50 in assay [3] and in assay [5] were 7 µg/mL (≈ 20.4 µM) and 3 µg/mL (≈ 8.76 µM), respectively. The compound also showed an IC50 in assay [4] of 60 nM.
In the case of `CC(C)(C)N1CC(COc2ccc3nc4[nH]c(=O)[nH]c4cc3c2)OC1=O` (centres unmarked) [Example 42, 7-[[3-(1,1-Dimethylethyl)-2-oxooxazolidin-5-yl]methoxy]-1H-imidazo[4,5-b]quinolin-2(3H)-one], the values for the EC50 in assay [3] and in assay [5] were 0.4 µg/mL (≈ 1.12 µM) and 6 µg/mL (≈ 16.8 µM), respectively. This compound had an IC50 in assay [4] of 70 nM.
In the case of `CC(C)NCC(O)COc1ccc2nc3[nH]c(=O)[nH]c3cc2c1` (centres unmarked) [Example 43, 1,3-Dihydro-7-[2-hydroxy-3-[(1-methylethyl)amino]propoxy]-2H-imidazo[4,5-b]quinolin-2-one], the EC50 in assay [3] and in assay [5] was greater than 32 µg/mL each time. In assay [4], half-maximal inhibition (IC50) required 300 nM.
`OCCN(CCO)c1nc(N2CCCCC2)c2nc(N(CCO)CCO)nc(N3CCCCC3)c2n1` [dipyridamole, reference compound]: in assay [2], the ED50 was greater than 100 mg/kg. Besides, the EC50 in assay [5] was greater than 512 µg/mL.
Regarding `Cc1[nH]c(=O)c(C#N)cc1-c1ccncc1` [milrinone, reference compound], the change in vivo at 3 mg/kg in assay [1] (read-out: Maximum Percentage Change Right Ventricular Contractile Force (RVCF)) came to 52%.
